Assay results: patent publication US10662193B2, “Carbazole and carboline compounds for use in the diagnosis, treatment, alleviation or prevention of disorders associated with amyloid or amyloid-like proteins” (AC IMMUNE SA, priority 2014, dated 2020)
Like-named read-outs stand apart in the source and are kept apart here.

Tests used:
Type in all cases: binding
[1] = molecular target: Tau enriched paired helical filaments (PHF) from human Alzheimer's disease (AD) brains (Homo sapiens, UniProt P10636); assay: Assay 3: backscattering interferometry, dissociation constants (Kd)
Source text: Assay 3 (Backscattering Interferometry):
Determination of Dissociation Constants (Kd) of Compounds of this Invention
Enrichment of Paired Helical Filaments (PHF's) from Human Alzheimer's Disease Brains
For backscattering interferometry, Tau enriched paired helical filaments (PHF) from human Alzheimer's disease (AD) brains were used as a target. Due to the limited availability of tissues, to determine dissociation constants (Kd) of compounds of this invention to the target, two different batches of enriched PHF were used. These batches are identified as batch 6 and 7 and were prepared as follows.
PHF batch number 6 was prepared starting from 25 g frontal cortical tissue from post-mortem brains of 25 Alzheimer's disease (AD) patients which were obtained from the London Tissue Bank. The mean age at death for the AD patients was 76 years (48% females). Brain samples were characterized for Braak disease stage (Braak and Braak, 1991), with most donors displaying a stage VI. The postmortem interval between death and brain dissection was between 6 and 65 h. Human brain homogenates were prepared by SB Drug Discovery (Glasgow, Scotland, UK) from the post-mortem cortical tissue of the 25 patients). Each tissue (1 g) was homogenized with a Dounce glass homogenizer in 1.5 mL 100 mM 2-(N-morpholino) ethane-sulfonic acid (MES) pH 6.8, 0.75 M NaCl, 1 mM EGTA, 0.5 mM MgSO4, 2 mM DTT containing protease inhibitors (Complete; Roche 11697498001). For each sample, two aliquots containing 0.5 g brain homogenates in 0.75 mL were shipped to AC Immune SA on dry ice and stored at −80° C. For the enrichment of PHF, 1 aliquot per donor corresponding to total 12.5 g of brain tissue were thawed on ice and then incubated at 4° C. for 20 min to depolymerize any residual microtubules. All samples were then pooled and transferred to three polycarbonate centrifuge bottles (16×76 mm; Beckman 355603).
PHF batch number 7 was prepared starting from 32 g of parietal cortex tissue from post-mortem brain of one Alzheimer's disease (AD) patient was obtained from an external provider (Tissue Solution). The patient was a person who died for end stage AD. The brain sample was collected 5 h post-mortem and characterized for Braak disease stage (Braak and Braak, 1991) as stage VI. The method used for the PHF enrichment was modified from published procedures (Jicha et al., 1997; Rostagno and Ghiso, 2009). Around 16 g of the AD human brain was thawed on ice and homogenized with 50 ml of homogenization buffer [0.75 M NaCl in RAB buffer (100 mM 2-(N-morpholino) ethanesulfonic acid (MES), 1 mM EGTA, 0.5 mM MgSO4, 2 mM DTT, pH 6.8) supplemented with protease inhibitors (Complete; Roche 11697498001)] in a glass Dounce homogenizer. The homogenate was then incubated at 4° C. for 20 min to let depolymerize any residual microtubules, before being transferred into polycarbonate centrifuge bottles (16×76 mm; Beckman 355603). For both purifications, brain homogenates were then centrifuged at 11,000 g (12,700 RPM) in an ultracentrifuge (Beckman, XL100K) for 20 min at 4° C. using the pre-cooled 70.1 rotor (Beckman, 342184). Pellets were kept on ice. Supernatants were pooled into polycarbonate bottles and centrifuged again at 100,000 g (38,000 RPM) for 1 h at 4° C. in the 70.1 Ti rotor to isolate PHF-rich pellets, whereas soluble Tau remained in the supernatants. The pellets from the first and second centrifugations were resuspended in 120 mL of extraction buffer [10 mM Tris-HCl pH 7.4, 10% sucrose, 0.85 M NaCl, 1% protease inhibitor (Calbiochem 539131), 1 mM EGTA, 1% phosphatase inhibitor (Sigma P5726 and P0044)]. The solution was then transferred into polycarbonate centrifuge bottles (16×76 mm; Beckman 355603) and centrifuged at 15,000 g (14,800 RPM) in an ultracentrifuge (Beckman, XL100K) for 20 min at 4° C. using the 70.1 Ti rotor. […]

[2] = system: Aβ plaques on AD brain section; assay: Assay 1: displacement of Compound B on human AD brain sections (fluorescence)
Description: Direct Binding of Compounds of this Invention to Human Alzheimer's Disease Brain Sections and/or Displacement of RefA and Compound B Frozen sections with a thickness of […] from the amygdala of donors diagnosed with Braak stage V-VI Alzheimer's Disease (Braak, H.; Braak, E. Acta Neuropathol., 1991, 82, 239-259), were purchased from a commercial provider (Tissue Solutions) and kept at -80° C. until use. Displacement of RefA and Compound B Brain sections were mainly treated as described above. Test compounds were, however, incubated on the section at 250 μM in 50% ethanol for 20 min at room temperature, and then directly incubated with the fluorescent reference compounds RefA and Compound B, each at 1 μM in 50% ethanol for 20 min at room temperature. RefA and Compound B stainings were visualized using the 470 nm and 365 nm excitation filters, respectively. Images were acquired, and tangles and plaques quantified using the NIS-Element software. Only those compounds not directly staining tangles or plaques at the same wavelengths as RefA and Compound B were tested in the displacement assay. Structure of Compound B (prepared by a similar procedure described for […] in WO2010/011964): […]

[3] = system: tau tangles/Aβ plaques on AD brain sections; assay: Assay 1: direct staining of human Alzheimer's disease brain sections (fluorescence); set-up: key to Direct staining of tau tangles/Aβ plaques on AD brain sections at 100 μM / Direct staining of tau tangles on AD brain sections at 100 μM / Direct staining of Aβ plaques on AD brain sections at 100 μM / Direct staining of tau tangles on AD brain sections (footnote a: at 250 μM): − (No); +++ (strong); ++ (good); + (weak); settings: 100 μM compound
Procedure, shortened: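 Compounds (100 μM, 50% aqueous ethanol, 20 min, RT, dark) applied directly to fixed […] frozen amygdala sections of Braak stage V-VI Alzheimer's brains. After washing and 0.1% Sudan Black treatment against autofluorescence, sections were imaged microscopically for fluorescent staining.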

[4] = system: tau tangles on AD brain section; assay: Assay 1: displacement of RefA on human AD brain sections (fluorescence); settings: for Selectivity (tau/Abeta): ratio of competition on tau tangles to competition on Aβ plaques
Description: Direct Binding of Compounds of this Invention to Human Alzheimer's Disease Brain Sections and/or Displacement of RefA and Compound B
Frozen sections with a thickness of […] from the amygdala of donors diagnosed with Braak stage V-VI Alzheimer's Disease (Braak, H.; Braak, E. Acta Neuropathol., 1991, 82, 239-259), were purchased from a commercial provider (Tissue Solutions) and kept at −80° C. until use.
Displacement of RefA and Compound B
Brain sections were mainly treated as described above. Test compounds were, however, incubated on the section at 250 μM in 50% ethanol for 20 min at room temperature, and then directly incubated with the fluorescent reference compounds RefA and Compound B, each at 1 μM in 50% ethanol for 20 min at room temperature. RefA and Compound B stainings were visualized using the 470 nm and 365 nm excitation filters, respectively. Images were acquired, and tangles and plaques quantified using the NIS-Element software. Only those compounds not directly staining tangles or plaques at the same wavelengths as RefA and Compound B were tested in the displacement assay.
Structure of RefA (Tago et al., J. Label. Compd. Radiopharm. 2013, DOI: 10.1002/jlcr.3133)

[5] = system: human brain slices from the frontal and/or temporal lobes of AD patients; assay: Autoradiography with 18F-labeled compounds using human brain tissue; settings: FIG. 14; for competition with amyloid binding compound: block with an amyloid binding compound; for competition with corresponding cold compound: blocking compound 10 μM
Description: Autoradiography Using Human Brain Tissue
18 micron thick frozen human brain slices and 6 micron thick human FFPE brain slices from the frontal and/or temporal lobes of AD patients were examined via autoradiography. Brain sections were equilibrated for at least 1 h in 1×PBS solution prior to use in the experiment. Each brain section was covered with a solution of the F-18 labeled tracer (200 Bq/μl, 500 μl) in 1×PBS. For blocking experiments with the corresponding 19F-labeled compound, an excess of the blocking compound was mixed with the 18F-compound to yield an end concentration of 10 μM. The brain sections were allowed to incubate with the tracer solution at room temperature for 1 h, drained afterwards and placed in a slide holder. The slides were then washed sequentially with 1×PBS for 1 min; 70% EtOH in 1×PBS for 2 min; 30% EtOH in 1×PBS for 2 min; and 1×PBS for 1 min. The slides were allowed to air-dry before being placed on Fuji imaging plates for overnight exposure. The imaging plates were scanned and the signal was measured using Fuji software to produce an autoradiographic image of the brain section. Representative examples of autoradiography studies with ^18F-178, ^18F-189, ^18F-161, ^18F-95, ^18F-168, ^18F-146, ^18F-156, ^18F-159 are shown in FIGS. 9 to 12.
The specificity of the signals was confirmed by blocking with an excess of the corresponding non-radioactive compounds.

[6] = PHF batch 7 (parietal cortex, one AD patient), read-out: [Kd] on PHF batch 7
[7] = PHF batch 6 (pooled frontal cortex, 25 AD patients), read-out: [Kd] on PHF batch 6

Chain of Tau enriched paired helical filaments (PHF) from human Alzheimer's disease (AD) brains (P10636 623-708 limits assumed): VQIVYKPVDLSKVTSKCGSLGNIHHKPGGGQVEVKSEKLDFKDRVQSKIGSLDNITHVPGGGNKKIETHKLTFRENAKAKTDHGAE

| Compound | Kd [1, 6] | Direct staining of tau tangles on AD brain sections at 100 μM [3] | Kd [1, 7] | further results |
| --- | --- | --- | --- | --- |
| Cn1c2ccncc2c2ccc(N3CCN(CCF)CC3)nc21 [168 Step B] | 160 ± 30 nM | ++ (tangles) |  | Competition on AD brain section Aβ plaques (1 μM Compound B vs 250 μM compound) [2]: −1% |
| Cn1c2ccncc2c2ccc(Nc3ccnc(F)c3)nc21 [Example 23] | 11 ± 2 nM |  | 38 ± 6 nM |  |
| Cn1c2ccncc2c2ccc(Nc3cccc(F)n3)nc21 [Example 28] | 400 ± 60 nM | + (tangles) |  |  |
| Cn1c2ccncc2c2ccc(Nc3cc(F)ccn3)nc21 [Example 51] | 260 ± 50 nM | +++ (tangles) |  |  |
| Cn1c2ccncc2c2ccc(Nc3cc(OCCF)ccn3)nc21 [Example 63] |  |  | 20 ± 3 nM |  |
| Cn1c2ccncc2c2ccc(N3CC4(CC(F)C4)C3)nc21 [Example 146] | 40 ± 10 nM | ++ (tangles) |  | Competition on AD brain section Aβ plaques (1 μM Compound B vs 250 μM compound) [2]: 0% |
| Cn1c2ccncc2c2ccc(N3[C@@H]4CC[C@H]3C[C@H](F)C4)nc21 [Example 147] | 170 ± 40 nM | ++ (tangles) |  |  |
| Cn1c2ccncc2c2ccc(N3CC4(CC(OCCOCCOCCF)C4)C3)nc21 [Example 153] |  | ++ (tangles) | 20 ± 5 nM |  |
| Cn1c2ccncc2c2ccc(N3CC4(CC(OCCF)C4)C3)nc21 [Example 154] | 270 ± 50 nM | ++ (tangles) |  |  |
| Cn1c2ccncc2c2ccc(N3CCC(OCCF)CC3)nc21 [Example 156] |  | + (tangles) | 26 ± 7 nM | Competition on AD brain section Aβ plaques (1 μM Compound B vs 250 μM compound) [2]: −8%; Competition on AD brain section tau tangles (1 μM RefA vs. 250 μM compound) [4]: 72%; Selectivity (tau/Abeta) [4]: >72 fold |
| Cn1c2ccncc2c2ccc(N3CCC[C@@H](F)C3)nc21 [Example 159] | 120 ± 20 nM | + (tangles) |  |  |
| Cn1c2ccncc2c2ccc(N3CCC(F)CC3)nc21 [Example 161] |  | + (tangles) | 18 ± 3 nM | Competition on AD brain section Aβ plaques (1 μM Compound B vs 250 μM compound) [2]: 14%; Competition on AD brain section tau tangles (1 μM RefA vs. 250 μM compound) [4]: 85%; Selectivity (tau/Abeta) [4]: ~6-fold |
| CN1CCc2c(c3ccc(Nc4cccc(OCCF)c4)nc3n2C)C1=O [Example 189] |  | ++ (tangles) | 16 ± 3 nM |  |
| Cn1c2cc[nH]c(=O)c2c2ccc(Nc3cccc(OCCF)c3)nc21 [Example 197] |  | + (tangles) | 100 ± 15 nM |  |
| Cn1c2c(c3ccc(Nc4ccc(F)c(OCCF)c4)nc31)C(=O)NCC2 [Example 201] |  |  | 75 ± 12 nM | Direct staining of tau tangles/Aβ plaques on AD brain sections at 100 μM ([3]; human AD brain sections, fluorescence, cell does not say tangles or plaques): − |
| Cn1c2ccncc2c2ccc(N3CCC(OCCOCC[18F])CC3)nc21 [^18F-152] |  |  |  | competition with amyloid binding compound [5]: no competition; competition with corresponding cold compound [5]: Competition observed |
| Cn1c2ccncc2c2ccc(N3CCC(OCC[18F])CC3)nc21 [^18F-156] |  |  |  | competition with amyloid binding compound [5]: no competition; competition with corresponding cold compound [5]: Competition observed |
| Cn1c2ccncc2c2ccc(N3CC[C@H]([18F])C3)nc21 [^18F-160] |  |  |  | competition with amyloid binding compound [5]: no competition; competition with corresponding cold compound [5]: Competition observed |
| Cn1c2c(c3ccc(Nc4cccc(OCCF)c4)nc31)C(=O)NCC2 [drawing 1063] |  |  | 46 ± 9 nM |  |
